Where two headings read alike, the source gives them in different places. A value given as a limit tells only on which side of the number the result lay.

The results in this text go back to US20250084091A1, “INHIBITORS OF SARS-COV-2” (The Texas A&M University System, priority 2021, published 2025).

In one data set the test system is HeLa-ACE2 cells. The experiment in a line: cells. It is filed as cell-based. The note with it: Table 2, total cell count in infected plates.
Data set [1] can be described thus: Uninfected host cell cytotoxicity counter screen. The class given is cell-based. The note with it: human. In outline: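 HeLa-ACE2 cells, uninfected, seeded at 400 cells/well with compounds and held 24 hours at 37° C., 5% CO2. Dead cells stained with Image-iT DEAD green, fixed in 4% paraformaldehyde, DAPI-counterstained and imaged. Data normalized to DMSO and 40 μM puromycin controls; concentration responses in triplicate.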
In general terms: A counterscreen serves to expose hits that act by an unwanted route or on another target.

The target in data set [2] is SARS-CoV-2 main protease (Mpro) (Severe acute respiratory syndrome coronavirus 2, UniProt P0DTD1). In words: biochemical. The following applies: read-out: Enzyme IC50.
Data set [3] deals with SARS-CoV-2 (strain USA-WA1/2020). The experiment in a line: microbe, parasite or virus in culture. The class given is cell-based.
The mark [4] stands for this setting: Table 3, select example compounds against mpro.
The mark [5] stands for this setting: Severe acute respiratory syndrome coronavirus 2, HeLa, Table 3, read-out: CoV-2 HeLa EC50.
Setting [6] is: Severe acute respiratory syndrome coronavirus 2, Table 2, SARS-CoV-2 infected HeLa-ACE2 cells, read-out: CoV-2 HeLa EC50.

A word on the EC50: it is the concentration that produces a half-maximal response. The term CC50 denotes the concentration at which the toxic effect on the cells reaches its halfway point. Higher therefore signals lower toxicity to the cells. What is called IC50 is the midpoint of a concentration-inhibition curve. In the case of `Cc1cncc(C(=O)N2CCC(=C3c4ccccc4CS(=O)(=O)c4ccccc43)CC2)c1` [NZ-801, [4-(5,5-dioxo-6H-benzo[c][1]benzothiepin-11-ylidene)-1-piperidyl]-(5-methyl-3-pyridyl)methanone], the EC50 in the data set on HeLa-ACE2 cells is 81 nM; in data set [3] (setting [5]), 42 nM; in data set [3] (setting [6]), 42 nM. Also, the CC50 at 24 h in data set [1] was greater than 39800 nM. Also, the half-maximal inhibitory concentration (IC50) in data set [2] (Table 2) amounted to 56 nM; in data set [2] (setting [4]), 12 nM.

For the compound `O=C(c1cncc(Br)c1)N1CCC(=C2c3ccccc3CS(=O)(=O)c3ccccc32)CC1` [NZ-802, (5-bromo-3-pyridyl)-[4-(5,5-dioxo-6H-benzo[c][1]benzothiepin-11-ylidene)-1-piperidyl]methanone], the EC50 stood at 41 nM in the data set with HeLa-ACE2 cells and 60 nM in data set [3] (setting [6]). This compound gave a CC50 at 24 h in data set [1] greater than 39800 nM. Besides, in data set [2] (Table 2), the half-inhibitory concentration (IC50) amounted to 67 nM.

Regarding `O=C(c1cncc2nc[nH]c12)N1CCC(=C2c3ccccc3CS(=O)(=O)c3ccccc32)CC1` [NZ-803, [4-(5,5-dioxo-6H-benzo[c][1]benzothiepin-11-ylidene)-1-piperidyl]-(1H-imidazo[4,5-c]pyridin-7-yl)methanone], the EC50 in the data set with HeLa-ACE2 cells was found to be 325 nM; in data set [3] (setting [6]) it was 183 nM. Also, the CC50 at 24 h in data set [1] was greater than 39800 nM. Moreover, in data set [2] (Table 2), the half-inhibitory concentration (IC50) came to 91 nM.

Regarding `O=C(c1cncc2cc[nH]c12)N1CCC(=C2c3ccccc3CS(=O)(=O)c3ccccc32)CC1` [NZ-804, [4-(5,5-dioxo-6H-benzo[c][1]benzothiepin-11-ylidene)-1-piperidyl]-(1H-pyrrolo[3,2-c]pyridin-7-yl)methanone], the results for the EC50 (with HeLa-ACE2 cells; in data set [3] (setting [5]); in data set [3] (setting [6])) were 162 nM, 15 nM and 15 nM, respectively. The same compound returned a half-maximal cytotoxic concentration (CC50) at 24 h in data set [1] greater than 39800 nM. Besides, the results for the IC50 in data set [2] (Table 2) and in data set [2] (setting [4]) were 30 nM and 9 nM, respectively.

In the case of `O=C(c1cncc2[nH]ccc12)N1CCC(=C2c3ccccc3CS(=O)(=O)c3ccccc32)CC1` [NZ-805, [4-(5,5-dioxo-6H-benzo[c][1]benzothiepin-11-ylidene)-1-piperidyl]-(1H-pyrrolo[2,3-c]pyridin-4-yl)methanone], the EC50 in the data set on HeLa-ACE2 cells came out at 64 nM; in data set [3] (setting [5]), 58 nM; in data set [3] (setting [6]), 58 nM. Besides, the cytotoxic concentration (CC50) at 24 h in data set [1] was greater than 39800 nM. In addition, the half-inhibitory concentration (IC50) in data set [2] (Table 2) turned out to be 48 nM; in data set [2] (setting [4]), 14 nM.

Take `O=S1(=O)Cc2ccccc2C(N2CCC(C(O)c3cccnc3)CC2)c2ccccc21` (stereo not shown) [NZ-806, [1-(5,5-dioxo-6,11-dihydrobenzo[c][1]benzothiepin-11-yl)-4-piperidyl]-(3-pyridyl)methanol]: the EC50 in the data set with HeLa-ACE2 cells is greater than 9610 nM; in data set [3] (Severe acute respiratory syndrome coronavirus 2, HeLa-ACE2, read-out: CoV-2 HeLa EC50, Table 2, SARS-CoV-2 infected HeLa-ACE2 cells), greater than 9610 nM. The CC50 at 24 h in data set [1] is greater than 39800 nM. Also, in data set [2] (Table 2), the IC50 worked out at 18900 nM.

For the compound `Cc1cncc(C(=O)N2CCN(C(c3ccccc3)c3ccccc3S(C)(=O)=O)CC2)c1` (stereo not shown) [NZ-807, (5-methyl-3-pyridyl)-[4-[(2-methylsulfonylphenyl)-phenyl-methyl]piperazin-1-yl]methanone], the values for the EC50 (with HeLa-ACE2 cells; in data set [3] (setting [6])) were greater than 9610 nM and 1990 nM, respectively. In data set [1], the cytotoxic concentration (CC50) at 24 h was greater than 39800 nM. The IC50 in data set [2] (Table 2) is 610 nM.

For `O=C(c1cncc2cc[nH]c12)N1CCN(C2c3ccccc3CS(=O)(=O)c3ccccc32)CC1` (stereo not shown) [NZ-808, [4-(5,5-dioxo-6,11-dihydrobenzo[c][1]benzothiepin-11-yl)piperazin-1-yl]-(1H-pyrrolo[3,2-c]pyridin-7-yl)methanone], the EC50 with HeLa-ACE2 cells was determined as 30 nM; in data set [3] (setting [5]), 25 nM; in data set [3] (setting [6]) it was 25 nM. The compound further displayed a CC50 at 24 h in data set [1] greater than 39800 nM. Moreover, the IC50 in data set [2] (Table 2) was 32 nM; in data set [2] (setting [4]) it was 10 nM.

In the case of `O=C(c1cncc2[nH]ccc12)N1CCN(C2c3ccccc3CS(=O)(=O)c3ccccc32)CC1` (stereo not shown) [NZ-809, [4-(5,5-dioxo-6,11-dihydrobenzo[c][1]benzothiepin-11-yl)piperazin-1-yl]-(1H-pyrrolo[2,3-c]pyridin-4-yl)methanone], the EC50 in the data set with HeLa-ACE2 cells was 111 nM; in data set [3] (setting [5]), 88 nM; in data set [3] (setting [6]) it was 88 nM. The compound also registered a half-maximal cytotoxic concentration (CC50) at 24 h in data set [1] greater than 39800 nM. Further, the half-inhibitory concentration (IC50) in data set [2] (Table 2) came out at 43 nM; in data set [2] (setting [4]), 15 nM.

Take `O=C(c1cncc2nc[nH]c12)N1CCN(C2c3ccccc3CS(=O)(=O)c3ccccc32)CC1` (stereo not shown) [NZ-810, [4-(5,5-dioxo-6,11-dihydrobenzo[c][1]benzothiepin-11-yl)piperazin-1-yl]-(1H-imidazo[4,5-c]pyridin-7-yl)methanone]: the figures for the EC50 (in the data set with HeLa-ACE2 cells; in data set [3] (setting [6])) were 434 nM and 482 nM, respectively. Moreover, the cytotoxic concentration (CC50) at 24 h in data set [1] is greater than 39800 nM. Moreover, in data set [2] (Table 2), the half-inhibitory concentration (IC50) worked out at 75 nM.

Regarding `O=C(c1cccnc1)N1CCN(C2c3ccccc3CCc3ccccc32)CC1` [ZS-312, 3-pyridyl-[4-(2-tricyclo[9.4.0.03,8]pentadeca-1(11),3(8),4,6,12,14-hexaenyl)piperazin-1-yl]methanone], the values for the half-maximal effective concentration (EC50) (with HeLa-ACE2 cells; in data set [3] (setting [6])) were greater than 9610 nM and 1040 nM, respectively. Moreover, the CC50 at 24 h in data set [1] is greater than 39800 nM. The IC50 in data set [2] (Table 2) was found to be 440 nM.

In the case of `O=C(c1cncc(Cl)c1)N1CCN(C2c3ccccc3CCc3ccccc32)CC1` [ZS-317, (5-chloro-3-pyridyl)-[4-(2-tricyclo[9.4.0.03,8]pentadeca-1(11),3(8),4,6,12,14-hexaenyl)piperazin-1-yl]methanone], the figures for the concentration for a half-maximal effect (EC50) (with HeLa-ACE2 cells; in data set [3] (setting [6])) were greater than 9610 nM and 900 nM, respectively. In addition, the CC50 at 24 h in data set [1] was greater than 39800 nM. For the same compound, the IC50 in data set [2] (Table 2) was 180 nM.

`O=C(c1cncc(F)c1)N1CCN(C2c3ccccc3CCc3ccccc32)CC1` [ZS-318, (5-fluoro-3-pyridyl)-[4-(2-tricyclo[9.4.0.03,8]pentadeca-1(11),3(8),4,6,12,14-hexaenyl)piperazin-1-yl]methanone]: the EC50 in the data set on HeLa-ACE2 cells was greater than 9610 nM; in data set [3] (setting [6]) it was 700 nM. Besides, the CC50 at 24 h in data set [1] is greater than 39800 nM. The IC50 in data set [2] (Table 2) was determined as 150 nM.

As for `COc1cncc(C(=O)N2CCN(C3c4ccccc4CCc4ccccc43)CC2)c1` [ZS-319, (5-methoxy-3-pyridyl)-[4-(2-tricyclo[9.4.0.03,8]pentadeca-1(11),3(8),4,6,12,14-hexaenyl)piperazin-1-yl]methanone], the figures for the EC50 (with HeLa-ACE2 cells; in data set [3] (setting [6])) were greater than 9610 nM and 920 nM, respectively. The compound further had a CC50 at 24 h in data set [1] of 32100 nM. For the same compound, the IC50 in data set [2] (Table 2) was found to be 210 nM.

Consider `O=C(c1cc[nH]c(=O)c1)N1CCN(C2c3ccccc3CCc3ccccc32)CC1` [ZS-320, 4-[4-(2-tricyclo[9.4.0.03,8]pentadeca-1(11),3(8),4,6,12,14-hexaenyl)piperazine-1-carbonyl]-1H-pyridin-2-one], for which the EC50 in the data set with HeLa-ACE2 cells was greater than 9610 nM; in data set [3] (setting [6]), 2530 nM. Further, the CC50 at 24 h in data set [1] was greater than 39800 nM. Besides, the IC50 in data set [2] (Table 2) came to 1180 nM.

With `O=C1CC(C(=O)N2CCN(C3c4ccccc4CCc4ccccc43)CC2)c2ccccc2N1` (stereo not shown) [ZS-324, 4-[4-(2-tricyclo[9.4.0.03,8]pentadeca-1(11),3(8),4,6,12,14-hexaenyl)piperazine-1-carbonyl]-3,4-dihydro-1H-quinolin-2-one], the concentration for a half-maximal effect (EC50) is greater than 9610 nM in the data set with HeLa-ACE2 cells and 2790 nM in data set [3] (setting [6]). In data set [1], this compound came in with a CC50 at 24 h of 21100 nM. Besides, the IC50 in data set [2] (Table 2) worked out at 540 nM.

Turning to `O=C1CC(C(=O)N2CCN(C(c3ccccc3)c3ccccc3)CC2)c2ccccc2N1` (stereo not shown) [ZS-325, 4-(4-benzhydrylpiperazine-1-carbonyl)-3,4-dihydro-1H-quinolin-2-one], the EC50 is greater than 9610 nM in the data set on HeLa-ACE2 cells and 5680 nM in data set [3] (setting [6]). Besides, in data set [1], the CC50 at 24 h was greater than 39800 nM. Further, the IC50 in data set [2] (Table 2) was 1510 nM.

`COC(=O)c1cncc(C(=O)N2CCN(C3c4ccccc4CCc4ccccc43)CC2)c1` [ZS-338, methyl 5-[4-(2-tricyclo[9.4.0.03,8]pentadeca-1(11),3(8),4,6,12,14-hexaenyl)piperazine-1-carbonyl]pyridine-3-carboxylate]: the EC50 with HeLa-ACE2 cells was greater than 9610 nM; in data set [3] (setting [6]) it was 7070 nM. Besides, the half-maximal cytotoxic concentration (CC50) at 24 h in data set [1] is greater than 39800 nM. Moreover, the 50% inhibitory concentration (IC50) in data set [2] (Table 2) was greater than 1000 nM.

For `O=C(c1cncc([N+](=O)[O-])c1)N1CCN(C2c3ccccc3CCc3ccccc32)CC1` [ZS-339, (5-nitro-3-pyridyl)-[4-(2-tricyclo[9.4.0.03,8]pentadeca-1(11),3(8),4,6,12,14-hexaenyl)piperazin-1-yl]methanone], the EC50 was greater than 9610 nM in the data set with HeLa-ACE2 cells and 4060 nM in data set [3] (setting [6]). In data set [1], this compound gave a CC50 at 24 h greater than 39800 nM. Besides, the IC50 in data set [2] (Table 2) amounted to 1150 nM.

For the compound `Cc1c(Br)cncc1C(=O)N1CCN(C2c3ccccc3CCc3ccccc32)CC1` [ZS-346, (5-bromo-4-methyl-3-pyridyl)-[4-(2-tricyclo[9.4.0.03,8]pentadeca-1(11),3(8),4,6,12,14-hexaenyl)piperazin-1-yl]methanone], the 50% effective concentration (EC50) in the data set with HeLa-ACE2 cells turned out to be 2040 nM; in data set [3] (setting [6]), 1070 nM. In data set [1], this compound displayed a cytotoxic concentration (CC50) at 24 h greater than 39800 nM. For the same compound, the IC50 in data set [2] (Table 2) is 270 nM.

Regarding `NC(=O)c1cncc(C(=O)N2CCN(C3c4ccccc4CCc4ccccc43)CC2)c1` [ZS-347, 5-[4-(2-tricyclo[9.4.0.03,8]pentadeca-1(11),3(8),4,6,12,14-hexaenyl)piperazine-1-carbonyl]pyridine-3-carboxamide], the EC50 with HeLa-ACE2 cells was greater than 9610 nM; in data set [3] (setting [6]) it was 4250 nM. Besides, the CC50 at 24 h in data set [1] is greater than 39800 nM. In addition, the IC50 in data set [2] (Table 2) is 1700 nM.
